Experimental data reported in the Kinase Knowledgebase extract (Sharma et al. 2016).

These compounds were tested against MAPK14 (UniProt Q16539) (assay: Inhibition of MAPK14 Kinase Activity).
MAPK14, sequence (Q16539 whole entry, looked up): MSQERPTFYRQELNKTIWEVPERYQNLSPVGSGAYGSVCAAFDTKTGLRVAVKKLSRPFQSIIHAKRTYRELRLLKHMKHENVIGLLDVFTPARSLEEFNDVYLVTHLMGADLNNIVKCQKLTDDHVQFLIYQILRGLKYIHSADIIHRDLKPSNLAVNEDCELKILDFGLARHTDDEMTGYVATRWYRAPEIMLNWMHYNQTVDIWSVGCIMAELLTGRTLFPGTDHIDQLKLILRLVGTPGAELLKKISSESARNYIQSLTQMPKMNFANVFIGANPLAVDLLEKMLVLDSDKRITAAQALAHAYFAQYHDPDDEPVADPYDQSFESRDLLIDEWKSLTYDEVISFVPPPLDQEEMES
In the case of CC(C)(N)[C@H]1CC[C@H](C(=O)Nc2ccncc2)CC1, the IC50 is reported as over 100 µM. For Cc1cncc2cccc(S(=O)(=O)N3CCCNC[C@@H]3C)c12, the IC50 was 100 µM.

These compounds were tested against ROCK2 (UniProt O75116) (assay: Inhibition of ROCK2 Kinase Activity).
ROCK2, sequence (O75116 whole entry, looked up): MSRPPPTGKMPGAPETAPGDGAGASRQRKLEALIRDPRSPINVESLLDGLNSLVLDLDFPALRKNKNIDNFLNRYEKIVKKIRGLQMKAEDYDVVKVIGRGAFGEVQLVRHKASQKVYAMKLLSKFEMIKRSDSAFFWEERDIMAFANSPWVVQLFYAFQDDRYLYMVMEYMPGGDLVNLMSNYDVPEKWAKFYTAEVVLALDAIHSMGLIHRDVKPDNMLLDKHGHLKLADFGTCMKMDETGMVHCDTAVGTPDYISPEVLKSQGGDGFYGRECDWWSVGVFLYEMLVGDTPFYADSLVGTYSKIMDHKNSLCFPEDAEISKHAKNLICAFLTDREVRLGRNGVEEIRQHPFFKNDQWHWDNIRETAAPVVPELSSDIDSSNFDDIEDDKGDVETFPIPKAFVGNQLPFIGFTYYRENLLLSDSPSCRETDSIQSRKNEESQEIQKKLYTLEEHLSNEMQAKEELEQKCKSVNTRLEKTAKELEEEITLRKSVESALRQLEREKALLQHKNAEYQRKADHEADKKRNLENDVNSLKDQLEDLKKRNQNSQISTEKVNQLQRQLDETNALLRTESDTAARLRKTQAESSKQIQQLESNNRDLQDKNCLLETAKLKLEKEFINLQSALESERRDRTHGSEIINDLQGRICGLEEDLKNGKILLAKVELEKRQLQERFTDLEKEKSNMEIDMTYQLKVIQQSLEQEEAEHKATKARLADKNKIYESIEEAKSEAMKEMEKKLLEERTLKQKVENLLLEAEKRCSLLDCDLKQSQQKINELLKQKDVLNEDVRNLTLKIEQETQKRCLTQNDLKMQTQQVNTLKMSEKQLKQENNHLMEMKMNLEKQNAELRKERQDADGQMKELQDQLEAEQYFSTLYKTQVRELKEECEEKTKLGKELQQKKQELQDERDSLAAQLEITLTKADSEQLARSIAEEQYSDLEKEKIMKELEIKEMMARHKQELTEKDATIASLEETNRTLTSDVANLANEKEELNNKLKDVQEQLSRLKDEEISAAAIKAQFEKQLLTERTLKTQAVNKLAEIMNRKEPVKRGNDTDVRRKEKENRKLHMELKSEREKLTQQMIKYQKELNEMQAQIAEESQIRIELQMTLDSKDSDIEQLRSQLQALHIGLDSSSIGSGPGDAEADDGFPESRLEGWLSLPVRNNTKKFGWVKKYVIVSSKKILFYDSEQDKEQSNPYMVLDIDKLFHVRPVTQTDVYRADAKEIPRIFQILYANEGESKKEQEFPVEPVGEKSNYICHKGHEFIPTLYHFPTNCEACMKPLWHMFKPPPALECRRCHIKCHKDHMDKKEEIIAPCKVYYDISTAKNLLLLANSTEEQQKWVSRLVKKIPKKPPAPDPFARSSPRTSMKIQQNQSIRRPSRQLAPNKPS
For C#Cc1cncc2cccc(S(=O)(=O)N3CCCN(C(=O)CN)C[C@@H]3C)c12, the IC50 was 42.9 nM. Cc1cncc2cccc(S(=O)(=O)N3CCNC(C)CC3)c12 (stereo unspecified) gave an IC50 of 123 nM. In the case of Cc1cncc2cccc(S(=O)(=O)N3CCCN(C(=O)CN)C[C@@H]3C)c12, the IC50 is reported as 11.8 nM. Compound CC(C)(N)[C@H]1CC[C@H](C(=O)Nc2ccncc2)CC1 has an IC50 of 162 nM. Compound Cc1cncc2cccc(S(=O)(=O)N3CCCN(C(=O)CN)CC3)c12 has an IC50 of 37.6 nM. For Cc1cncc2cccc(S(=O)(=O)N3CCCNCC3)c12, the IC50 was 96.8 nM. Cc1cncc2cccc(S(=O)(=O)N3CCCNC(C)C3)c12 (stereo unspecified) was tested, and the IC50 was 80.6 nM. C[C@H]1CN(C(=O)CN)CCCN1S(=O)(=O)c1cccc2cncc(Br)c12 showed an IC50 of 42.9 nM. With CCc1cncc2cccc(S(=O)(=O)N3CCCNC[C@@H]3C)c12 the IC50 was 656 nM. For C[C@H]1CNCCCN1S(=O)(=O)c1cccc2cncc(C#N)c12, the IC50 was 426 nM. Cc1cncc2cccc(S(=O)(=O)N3CCNCC(C)C3)c12 (stereo unspecified) showed an IC50 of 107 nM. NCC(=O)N1CCCN(S(=O)(=O)c2cccc3cnccc23)CC1 was tested, and the IC50 was 527 nM. C#Cc1cncc2cccc(S(=O)(=O)N3CCCNC[C@@H]3C)c12 showed an IC50 of 6 nM. Work on CC[C@H]1CNCCCN1S(=O)(=O)c1cccc2cncc(C)c12 yielded an IC50 of 113 nM. Cc1cncc2cccc(S(=O)(=O)N3CCCNC[C@@H]3C(C)C)c12 showed an IC50 of 804 nM. Compound C[C@H]1CNCCCN1S(=O)(=O)c1cccc2cncc(Br)c12 has an IC50 of 5.83 nM. Compound C[C@H]1CNCCCN1S(=O)(=O)c1cccc2cncc(Cl)c12 has an IC50 of 12.2 nM. Work on C[C@H]1CNCCCN1S(=O)(=O)c1cccc2cncc(O)c12 yielded an IC50 of 2750 nM.

Each compound was assayed against EGFR (UniProt P00533) (assay: not given).
EGFR, sequence (P00533 whole entry, looked up): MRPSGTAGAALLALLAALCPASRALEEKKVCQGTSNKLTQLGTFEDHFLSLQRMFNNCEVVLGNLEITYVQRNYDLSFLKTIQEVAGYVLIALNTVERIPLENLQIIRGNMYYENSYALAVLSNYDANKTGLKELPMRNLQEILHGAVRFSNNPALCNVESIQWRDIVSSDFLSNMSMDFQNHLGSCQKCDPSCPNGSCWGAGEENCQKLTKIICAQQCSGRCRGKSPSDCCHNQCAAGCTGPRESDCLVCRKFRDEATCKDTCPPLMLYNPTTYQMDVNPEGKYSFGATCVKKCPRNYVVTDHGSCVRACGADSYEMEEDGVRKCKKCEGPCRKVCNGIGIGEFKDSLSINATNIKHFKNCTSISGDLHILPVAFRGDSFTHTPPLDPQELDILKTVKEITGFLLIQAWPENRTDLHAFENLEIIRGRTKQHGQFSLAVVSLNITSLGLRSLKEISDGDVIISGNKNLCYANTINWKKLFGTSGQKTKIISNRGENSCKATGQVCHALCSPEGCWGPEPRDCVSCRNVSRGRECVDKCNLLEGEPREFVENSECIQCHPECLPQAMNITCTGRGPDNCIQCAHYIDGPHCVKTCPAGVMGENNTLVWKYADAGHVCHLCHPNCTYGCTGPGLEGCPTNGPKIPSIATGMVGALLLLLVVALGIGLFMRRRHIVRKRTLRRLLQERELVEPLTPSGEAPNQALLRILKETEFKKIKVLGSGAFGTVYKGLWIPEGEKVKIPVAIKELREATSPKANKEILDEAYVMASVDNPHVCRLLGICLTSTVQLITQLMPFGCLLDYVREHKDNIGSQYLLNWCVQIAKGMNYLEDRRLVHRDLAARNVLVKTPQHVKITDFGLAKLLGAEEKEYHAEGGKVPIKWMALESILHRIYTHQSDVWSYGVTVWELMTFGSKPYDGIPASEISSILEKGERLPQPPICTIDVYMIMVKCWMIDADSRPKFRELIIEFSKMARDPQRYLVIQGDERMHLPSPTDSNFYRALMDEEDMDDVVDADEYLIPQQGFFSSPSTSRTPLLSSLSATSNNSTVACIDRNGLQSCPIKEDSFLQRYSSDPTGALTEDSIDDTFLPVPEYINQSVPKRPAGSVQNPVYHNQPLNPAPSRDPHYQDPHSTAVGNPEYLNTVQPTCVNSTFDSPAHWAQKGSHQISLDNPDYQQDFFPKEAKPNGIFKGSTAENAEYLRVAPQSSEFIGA
For CC(C)(N)[C@H]1CC[C@H](C(=O)Nc2ccncc2)CC1, the IC50 was 100 µM.
